Assay results published in PubChem BioAssay (NCI).
Values joined by “and” are separate entries in the source; they are usually repeats but may differ in a detail not shown here. Equal entries are not always repeated.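 Values below derive from 48-hour exposures of cells grown in 96-well plates, with endpoints linearly interpolated between the two concentrations bracketing the appropriate inhibition level. GI50: concentration for 50% inhibition of growth. TGI marks complete inhibition of growth.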

How the values were obtained:
Experiment in all cases: NCI anticancer screen, dose series, 48 h
[1] = system: SF-268 CNS
[2] = system: A498 renal
[3] = system: CAKI-1 renal
[4] = system: OVCAR-8 ovarian
[5] = system: 786-0 renal
[6] = system: UACC-257 melanoma
[7] = system: SK-OV-3 ovarian
[8] = system: NCI-H23 lung
[9] = system: COLO 205 colon
[10] = system: SW-620 colon

Row | Structure (SMILES) | TGI [1] | TGI [2] | TGI [3] [µM] | TGI [4] | TGI [5] | TGI [6] | TGI [7] | TGI [8] | TGI [9] | TGI [10] | GI50 [1] [µM] | GI50 [2] [µM] | GI50 [3] [µM] | GI50 [4] [µM] | GI50 [5] [µM] | GI50 [6] [µM] | GI50 [7] [µM] | GI50 [8] [µM] | GI50 [9] [µM] | GI50 [10] [µM]
1 | CCCOc1ccc(-c2nc(-c3ccc(N=Cc4ccc(N(CCOS(C)(=O)=O)CCOS(C)(=O)=O)cc4C)cc3)cs2)cc1 | 77.8 µM | 24.2 µM | 12.8 | > 100 µM | 26.5 µM | > 100 µM | 43.2 µM | 30.8 µM | 14.9 µM | > 100 µM |  |  |  |  |  |  |  |  |  | 
2 | NC(=NCCCC1(c2ccccc2)CCCC1)Nc1ccc(Cl)cc1 | 3.35 µM | 3.29 µM | 3.94 | 3.8 µM | 3.13 µM | 3.56 µM | 5.59 µM | 3.35 µM | 3.44 µM | 3.85 µM | 1.66 | 1.75 | 1.93 | 1.9 | 1.68 | 1.82 | 2.43 | 1.69 | 1.69 | 1.85
3 | C[C@H](N)C(=O)N[C@@H]1[C@H]2C(=C(O)C[C@@H](O)[C@@H]2O)C(=O)O[C@]1(C)C(Cl)Cl | 2.8 µM and 2.59 µM | 2.27 µM and 1.56 µM |  | 3.12 µM and 1.18 µM | 10.9 µM and 1.8 µM | 1.16 µM and 1.94 µM | 2.25 µM and 1.95 µM | 1.04 µM and 1.1 µM | 0.212 µM and 0.37 µM | 6.6 µM and 3 µM | 0.15 |  | 0.43 | 0.255 | 0.246 | 0.096 | 0.2 | 0.226 | 0.13 | 0.221
4 | CCNCCC1(CC)C(=O)NC(=O)NC1=O | > 100 µM | > 100 µM | > 100 | > 100 µM | > 100 µM | > 100 µM | > 100 µM | > 100 µM | > 100 µM | > 100 µM |  |  |  |  |  |  |  |  |  | 
5 | CNC(=O)c1c(NC(=O)c2ccc(C(F)(F)F)cc2)sc2c1CCC(=O)C2 | > 37.9 µM | 7.07 µM | 1.88 | > 37.1 µM | 15.1 µM | 6.22 µM | 7.2 µM | 5.9 µM | 3.1 µM | 1.64 µM | 0.995 | 2.33 | 0.388 | 0.466 | 0.415 | 1.73 | 2.26 | 0.418 | 0.603 | 0.235
6 | CC(C)CCSC1=CC(=O)c2ccccc2C1=O | 23.8 µM | 63.9 µM | 21.9 | 17.3 µM | 34.4 µM | 26.7 µM | > 81.2 µM | 34.7 µM | 22.9 µM | 8.91 µM | 6.66 | 19.8 | 10.3 | 4.56 | 19.8 | 13.3 | 26.1 | 14.5 | 10.9 | 2.59
7 | CO/[N+]([O-])=C\C(=O)N/C=C/C(=O)O | > 100 µM | > 100 µM | > 100 | > 100 µM | > 100 µM | > 100 µM | > 100 µM | > 100 µM | > 100 µM | > 100 µM |  |  |  |  |  |  |  |  |  | 
8 | CN[C@@H](C)C(=O)N[C@H]1CN(C(=O)CC(C)C)CC[C@H]2CC[C@@H](C(=O)NC(c3ccccc3)c3ccccc3)N2C1=O | > 100 µM | > 100 µM | > 100 | > 100 µM | > 100 µM | > 100 µM | 1.04 µM | > 100 µM | > 100 µM | > 100 µM | > 100 | > 42.7 | > 100 | 61.6 | > 100 | > 74.3 | 0.156 | 27.6 | > 79.8 | > 100
9 | O=C(NCCO)c1cc2c(cn1)[nH]c1ccccc12 | > 100 µM | > 100 µM | > 100 | > 100 µM | 33.7 µM | > 100 µM | > 100 µM | > 100 µM | > 100 µM | > 100 µM |  |  |  |  |  |  |  |  |  | 
10 | Cc1ncc(C(=O)Nc2ccc(CN3CCN(C)CC3)c(C(F)(F)F)c2)cc1C#Cc1cnc(N)c2cnccc12 | 11.7 µM | 0.3 µM | 1.64 | 16.3 µM | 11 µM | 1.29 µM | 0.763 µM | 10.5 µM | 3.74 µM | 1.39 µM | 0.0791 | 0.0511 | 0.167 | 0.112 | 0.225 | 0.0689 | 0.162 | 0.0873 | 0.0276 | 0.0649
11 | N=C(N)/N=C(\N)c1c(-c2cc(O)ccc2O)nc2sccn12 | > 100 µM | > 100 µM | 39.3 | > 100 µM | 38.9 µM | 62.7 µM | > 100 µM | 34.1 µM | > 100 µM | 39.4 µM | > 100 | > 100 | 20.1 | 59.9 | 19.9 | 25.1 | > 100 | 19.5 | 38.7 | 19.9
12 | C#CCSc1n[nH]c(-c2ccco2)n1 | > 100 µM | > 100 µM | > 100 | > 100 µM | > 100 µM | > 100 µM | > 100 µM | > 100 µM | > 100 µM | > 100 µM |  |  |  |  |  |  |  |  |  | 
